These results are taken from patent publication US4590178A (Ajinomoto Company, Incorporated, priority 1982, dated 1986).

For this test, the system named is spontaneously hypertensive rats. Description: Antihypertensive activity: systolic blood pressure measured indirectly on conscious SHR after peroral dosing. Type of test: in vivo, rat. As to conditions: for Systolic Blood Pressure, Pretreatment: SHR (male, 13 months, 2 per sample), before 35 mg/kg peroral single dose; for Systolic Blood Pressure, 4 hrs after administration / Δ Blood Pressure: SHR; for Systolic Blood Pressure, 4 hrs after administration: 4 hours after 35 mg/kg peroral single dose; for Δ Blood Pressure: 4 hours after 35 mg/kg peroral single dose versus pretreatment. As to the method: The antihypertensive activity of part of the amino acid derivatives prepared above, was determined.
As subject animals 2 SHR were used which had been trained enough and been confirmed to be hypertensive spontaneously hypertensive rats (male, 13 months of age, the body weight of 400 to 440 g) per sample.
As an instrument for measuring the blood pressure a Programmed Electro-Sphygmomanometer PE-300 (Narco Co., U.S.A.) was used, and the blood pressure was indirectly measured on conscious rats.
An aqueous solution or suspension of a sample (35 mg/kg) was once force-fed into the stomach by means of a peroral probe.
An antihypertensive activity of part of the amino acid derivatives prepared above was determined.
As subject animals there were used 2 SHR which had been trained enough and been confirmed to be hypertensive spontaneously hypertensive rats (male, 13 months of age, the body weight of 400~440 g) per sample.
As an instrument for measuring the blood pressure there was used Programmed Electro-Sphygmomanometer PE-300 (Narco Co., U.S.A.), and the blood pressure was indirectly measured on conscious rats.
An antihypertensive activity of the product prepared above was determined.

Regarding `C[C@H](NP(=O)(OCc1ccccc1)OCc1ccccc1)C(=O)N1CCC[C@H]1C(=O)N1C[C@H](O)C[C@H]1C(=O)O.N=C(N)NCCC[C@H](N)C(=O)O` (relative stereo) [Example 16, Dibenzylphosphoryl-L-alanyl-L-prolyl-trans-L-hydroxyproline L-arginine salt], the “Systolic Blood Pressure, Pretreatment” value was found to be 181 mm Hg; the “Systolic Blood Pressure, 4 hrs after administration” value (“Systolic Blood Pressure, 4 hrs” for short) is recorded as 162 mm Hg; the “Δ Blood Pressure” value is recorded as -19 mm Hg.

For the molecule `C[C@H](NP(=O)(OCc1ccccc1)OCc1ccccc1)C(=O)N1C[C@H](O)C[C@H]1C(=O)N1CCC[C@H]1C(=O)O` (relative stereo) [Example 17, Dibenzylphosphoryl-L-alanyl-trans-L-hydroxyprolyl-L-proline], the “Systolic Blood Pressure, Pretreatment” value was 182 mm Hg; the “Systolic Blood Pressure, 4 hrs” value worked out at 163 mm Hg; the “Δ Blood Pressure” value is -19 mm Hg.

Regarding `C[C@H](NP(=O)(OCc1ccccc1)OCc1ccccc1)C(=O)N1CCC[C@H]1C(=O)O.NC(N)=NCCC[C@H](N)C(=O)O` [*, Dibenzyl phosphorylL-alanyl-L-proline Larginine salt, reference compound], the “Systolic Blood Pressure, Pretreatment” value is listed as 198 mm Hg; the “Systolic Blood Pressure, 4 hrs” value came out at 193 mm Hg; the “Δ Blood Pressure” value is recorded as -5 mm Hg.

Consider `C[C@H](NP(=O)(OCc1ccccc1)OCc1ccccc1)C(=O)N1CCC[C@H]1C(=O)N[C@@H](Cc1ccccc1)C(=O)O.N=C(N)NCCC[C@H](N)C(=O)O` [Example 5, Dibenzylphosphoryl-L-alanyl-L-prolyl-L-phenylalanyl L-arginine salt], for which the “Systolic Blood Pressure, Pretreatment” value was found to be 188 mm Hg; the “Systolic Blood Pressure, 4 hrs” value was found to be 173 mm Hg; the “Δ Blood Pressure” value is recorded as -15 mm Hg.

On to `C[C@H](NP(=O)(OCc1ccccc1)OCc1ccccc1)C(=O)N1CCC[C@H]1C(=O)NCC(=O)O.N=C(N)NCCC[C@H](N)C(=O)O` [Example 6, Dibenzylphosphory-L-alanyl-L-prolyl-glycine L-arginine salt], for which the “Systolic Blood Pressure, Pretreatment” value amounted to 212 mm Hg; the “Systolic Blood Pressure, 4 hrs” value is reported as 190 mm Hg; the “Δ Blood Pressure” value is reported as -22 mm Hg.

For the molecule `C[C@H](NP(=O)(OCc1ccccc1)OCc1ccccc1)C(=O)N1CCC[C@H]1C(=O)N[C@@H](CCCNC(=N)N)C(=O)O` [Example 13], the “Systolic Blood Pressure, Pretreatment” value is reported as 181 mm Hg; the “Systolic Blood Pressure, 4 hrs” value is given as 162 mm Hg; the “Δ Blood Pressure” value is recorded as -19 mm Hg.

On to `O=C(O)[C@@H]1CCCN1C(=O)[C@@H]1CCCN1C(=O)[C@H](Cc1ccccc1)NP(=O)(Cc1ccccc1)Cc1ccccc1` [Example 20, Dibenzylphosphoryl-L-phenylalanyl-L-Prolyl-L-proline], for which the “Systolic Blood Pressure, Pretreatment” value was found to be 184 mm Hg; the “Systolic Blood Pressure, 4 hrs” value is 169 mm Hg; the “Δ Blood Pressure” value is -15 mm Hg.

As for `N=C(N)NCCC[C@H](NP(=O)(Cc1ccccc1)Cc1ccccc1)C(=O)N1CCC[C@H]1C(=O)N1CCC[C@H]1C(=O)O` [Example 21, Dibenzylphosphoryl-L-arginyl-L-prolyl-L-proline], the “Systolic Blood Pressure, Pretreatment” value came out at 191 mm Hg; the “Systolic Blood Pressure, 4 hrs” value was determined as 167 mm Hg; the “Δ Blood Pressure” value is -24 mm Hg.

As to `O=C(O)CC[C@H](NP(=O)(OCc1ccccc1)OCc1ccccc1)C(=O)N1CCC[C@H]1C(=O)N1CCC[C@H]1C(=O)O` [Example 22, Dibenzylphosphoryl-L-glutamyl-L-propyl-L-proline], the “Systolic Blood Pressure, Pretreatment” value is reported as 206 mm Hg; the “Systolic Blood Pressure, 4 hrs” value is recorded as 196 mm Hg; the “Δ Blood Pressure” value is -10 mm Hg.

`C[C@H](NP(=O)(CCc1ccccc1)OCc1ccccc1)C(=O)N1CCC[C@H]1C(=O)N1CCC[C@H]1C(=O)OCc1ccccc1` (stereo partly drawn) [Example 26, N-(O-benzyl-P-phenethylphosphonyl)-L-alanyl-L-prolyl-L-proline benzylester]: the “Systolic Blood Pressure, Pretreatment” value came out at 182 mm Hg; the “Systolic Blood Pressure, 4 hrs” value was determined as 160 mm Hg; the “Δ Blood Pressure” value was -22 mm Hg.

For `C[C@H](NP(=O)(CCc1ccccc1)OCc1ccccc1)C(=O)N1CCC[C@H]1C(=O)N1CCC[C@H]1C(=O)O.NC(N)=NCCC[C@H](N)C(=O)O` (stereo partly drawn) [Example 27, N-(O-benzyl-P-phenethylphosphonyl)-L-alanyl-L-prolyl-L-proline L-arginine salt], the “Systolic Blood Pressure, Pretreatment” value is reported as 180 mm Hg; the “Systolic Blood Pressure, 4 hrs” value is reported as 152 mm Hg; the “Δ Blood Pressure” value is -28 mm Hg.

On to `C[C@H](NP(=O)([O-])CCc1ccccc1)C(=O)N1CCC[C@H]1C(=O)N1CCC[C@H]1C(=O)[O-].[Na+].[Na+]` [Example 28, N-phenethylphosphonyl-L-alanyl-L-prolyl-L-proline 2 sodium salt], for which the “Systolic Blood Pressure, Pretreatment” value came to 183 mm Hg; the “Systolic Blood Pressure, 4 hrs” value was 151 mm Hg; the “Δ Blood Pressure” value is on record as -32 mm Hg.

For the molecule `C[C@H](NP(=O)(O)CCc1ccccc1)C(=O)N(CC(=O)N1CCC[C@H]1C(=O)[O-])C1Cc2ccccc2C1.C[C@H](NP(=O)(O)CCc1ccccc1)C(=O)N(CC(=O)N1CCC[C@H]1C(=O)[O-])C1Cc2ccccc2C1.[Na+].[Na+]` [Example 29, N-Phenethylphosphonyl-L-alanyl-N-(2-indanyl)glycyl-L-proline 2 sodium salt], the “Systolic Blood Pressure, Pretreatment” value is recorded as 203 mm Hg; the “Systolic Blood Pressure, 4 hrs” value is listed as 172 mm Hg; the “Δ Blood Pressure” value is -31 mm Hg.

`C[C@H](NP(=O)(CCc1ccccc1)OCc1ccccc1)C(=O)N(CC(=O)N1CCC[C@H]1C(=O)O)C1Cc2ccccc2C1.NC(N)=NCCC[C@H](N)C(=O)O` (stereo partly drawn) [Example 30, N-(O-Benzyl-P-phenethylphosphonyl)-L-alanyl-N-(2-indanyl)glycyl-L-proline L-arginine salt]: the “Systolic Blood Pressure, Pretreatment” value was 184 mm Hg; the “Systolic Blood Pressure, 4 hrs” value turned out to be 154 mm Hg; the “Δ Blood Pressure” value is reported as -30 mm Hg.

Consider `C[C@H](NP(=O)(OCc1ccccc1)OCc1ccccc1)C(=O)N1CCC[C@H]1C(=O)N1CCC[C@H]1C(=O)[O-].[K+]` [Example 32, Dibenzylphosporyl-L-alanyl-L-propyl-L-Proline potassium salt], for which the “Systolic Blood Pressure, Pretreatment” value is on record as 185 mm Hg; the “Systolic Blood Pressure, 4 hrs” value amounted to 160 mm Hg; the “Δ Blood Pressure” value is recorded as -25 mm Hg.

For `CSCC[C@H](NP(=O)(OCc1ccccc1)OCc1ccccc1)C(=O)N1CCC[C@H]1C(=O)N1CCC[C@H]1C(=O)O.N=C(N)NCCC[C@H](N)C(=O)O` [Example 33, Dibenzylphosphoryl-L-methionyl-L-propyl-L-proline L-arginine salt], the “Systolic Blood Pressure, Pretreatment” value is given as 186 mm Hg; the “Systolic Blood Pressure, 4 hrs” value worked out at 168 mm Hg; the “Δ Blood Pressure” value is given as -18 mm Hg.

Take `CSCC[C@H](NP(=O)(CCc1ccccc1)OCc1ccccc1)C(=O)N1CCC[C@H]1C(=O)N1CCC[C@H]1C(=O)O.NC(N)=NCCC[C@H](N)C(=O)O` (stereo partly drawn) [Example 35, N-(O-Benzyl-P-phenethylphosphonyl)-L-methionyl-L-prolyl-L-proline L-arginine salt]: the “Systolic Blood Pressure, Pretreatment” value is recorded as 191 mm Hg; the “Systolic Blood Pressure, 4 hrs” value is given as 158 mm Hg; the “Δ Blood Pressure” value is listed as -33 mm Hg.

In the case of `NCCCC[C@H](NP(=O)(O)CCc1ccccc1)C(=O)N1CCC[C@H]1C(=O)N1CCC[C@H]1C(=O)[O-].NCCCC[C@H](NP(=O)(O)CCc1ccccc1)C(=O)N1CCC[C@H]1C(=O)N1CCC[C@H]1C(=O)[O-].[Na+].[Na+]` [Example 36, N^α -Phenethylphosphonyl-L-lysyl-L-prolyl-L-proline 2 sodium salt], the “Systolic Blood Pressure, Pretreatment” value turned out to be 200 mm Hg; the “Systolic Blood Pressure, 4 hrs” value amounted to 177 mm Hg; the “Δ Blood Pressure” value is -23 mm Hg.

Turning to `CCOP(=O)(CCc1ccccc1)N[C@@H](CCCCN)C(=O)N1CCC[C@H]1C(=O)N1CCC[C@H]1C(=O)O.NC(N)=NCCC[C@H](N)C(=O)O` (stereo partly drawn) [Example 37, N^α -(O-Ethyl-P-phenethylphosphonyl)-L-lysyl-L-prolyl-L-proline L-arginine salt], the “Systolic Blood Pressure, Pretreatment” value stood at 201 mm Hg; the “Systolic Blood Pressure, 4 hrs” value is listed as 172 mm Hg; the “Δ Blood Pressure” value is -29 mm Hg.

`CCCCCP(=O)(O)N[C@@H](C)C(=O)N1CCC[C@H]1C(=O)N1CCC[C@H]1C(=O)[O-].CCCCCP(=O)(O)N[C@@H](C)C(=O)N1CCC[C@H]1C(=O)N1CCC[C@H]1C(=O)[O-].[Na+].[Na+]` [Example 38, N-n-Amylphosphonyl-L-alanyl-L-prolyl-L-proline 2 sodium salt]: the “Systolic Blood Pressure, Pretreatment” value worked out at 187 mm Hg; the “Systolic Blood Pressure, 4 hrs” value is on record as 167 mm Hg; the “Δ Blood Pressure” value was -20 mm Hg.

For the molecule `CCOP(=O)(CCc1ccccc1)N[C@@H](CCSC)C(=O)N1CCC[C@H]1C(=O)N1CCC[C@H]1C(=O)O.NC(N)=NCCC[C@H](N)C(=O)O` (stereo partly drawn) [Example 40, N--(O--ethyl-P--phenethylphosphonyl)-L-methionyl-L-prolyl-L-proline L-arginine salt], the “Systolic Blood Pressure, Pretreatment” value is given as 196 mm Hg; the “Systolic Blood Pressure, 4 hrs” value was 166 mm Hg; the “Δ Blood Pressure” value is on record as -30 mm Hg.
